Experimental data reported in US5208244A, “Method of selectively inhibiting calcium-independent myocardial phospholipase A2” (priority 1990, dated 1993).
Structures can show the parent of a compound that is named as a salt. Where two headings read alike, the source gives them in different places.

Legend:
porcine pancreatic PLA2 = biological target: T1, porcine pancreatic PLA2 (Sus scrofa, UniProt P00592); assay: Porcine pancreatic PLA2 assay ([14C]-oleate labelled E. coli); assay type: biochemical; conditions: 10 mM CaCl2, pH 8.0; > : inhibition but not enough for an IC50; >> : little or no inhibition at highest concentration; read-out: Porcine Pancr. PLA2 IC50
T1 construct: purchased Sigma (St. Louis); host or cells: porcine pancreas
T1 sequence (P00592 23-146): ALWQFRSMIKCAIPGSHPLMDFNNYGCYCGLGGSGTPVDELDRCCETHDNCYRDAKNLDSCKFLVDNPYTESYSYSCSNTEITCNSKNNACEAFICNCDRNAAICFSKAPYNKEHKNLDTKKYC
From the text: (§1) Several other PLA2 assays were utilized in order to gain some measure of the selectivity of the inhibitors of calcium-independent myocardial PLA2. Specifically, three other calcium-dependent mammalian PLA2 assays are used: (1) sheep platelet PLA2, (2) human synovial fluid PLA2, and (3) porcine pancreatic PLA2. The PLA2 enzymes represent different groups of PLA2 enzymes. Myocardial PLA2, platelet PLA2, and secreted PLA2 enzymes (human synovial fluid PLA2 and porcine pancreatic PLA2) have very different calcium requirements, which may be typical of their respective classes.
Purified porcine pancreatic PLA2 was obtained from Sigma (St. Louis, Miss.). PLA2 activity was measured by using [^14 C]-oleate labelled autoclaved E. coli as described by Franson, Patriarca and Elsbach (referenced above). The assay was performed at 37° C. for 5 min in a final volume of 100 μL Tris-HCl buffer (100
mM, pH 8.0) containing 1 mM EDTA, 10 mM CaCl2, and E. coli (containing 10 nmol phospholipid). The test compound or control vehicle was preincubated with PLA2 for 5 min, followed by adding E. coli to initiate the reaction. The reaction was terminated by adding 2 mL tetrahydrofuran. The reaction product, [^14 C]-oleic acid, was isolated using a 1 mL Bond Elute--NH2 column and counted by liquid scintillation spectrometry.
(§2) Two greater than symbols (>>) indicate little or no inhibition at the highest concentration used. Activation of an enzyme is indicated by a +X% which gave that activation of X%.

sheep platelet PLA2 = assay: Calcium-dependent sheep platelet PLA2 assay; assay type: biochemical; conditions: 1 μM CaCl2, pH 7.2; > : inhibition observed but not enough for an IC50 at highest concentration
From the text: as §1
Homogeneous sheep platelet cytosolic PLA2 was prepared as described by Loeb, L. A., and Gross, R. W. J. Biol. Chem. 261, 10467-10470 (1986). The purified calcium-dependent platelet PLA2 was preincubated in 70 mM Tris-Cl (pH 7.2) containing 1 μM CaCl2 and test compound for 5 min at 25° C. Catalysis was initiated by injection 1 μM radiolabeled substrate (1-O-(Z)-(1'-hexadecenyl)-2-[9,10-^3 H]-oleoyl-3-phosphorylcholine). After a 10 min incubation period at 37° C., reaction products were extracted with n-butanol, separated by thin layer chromatography, and quantified by scintillation spectrometry. PLA2 activity was compared in the presence and absence of test compound and the IC50 was determined.
as §2

[1] = tested on: calcium-independent canine myocardial PLA2; assay: Inhibition of purified calcium-independent canine myocardial PLA2 (radiolabeled fatty acid release); assay type: biochemical; conditions: for IC50: purified enzyme, 6.4 mM EGTA, pH 7.0, 5 min preincubation 25° C., 5 min at 37° C., read-out: Canine Heart PLA2 IC50; for selectivity for calcium-independent canine myocardial PLA2 over the calcium-dependent PLA2 enzymes: versus calcium-dependent PLA2 enzymes
Method: This assay consists of determining the amount of radiolabeled fatty acid which is liberated from the radiolabeled phospholipid substrate by purified calcium-independent canine myocardial PLA2 in the presence of varying concentrations of the inhibitor. […] This concentration is defined as the IC50.
Appropriate controls were performed in the absence of test compound. Catalysis was initiated by injection of 1 μM radiolabeled substrate (1-O-(Z)-(1'-hexadecenyl)-2-[9,10-^3 H]-oleoyl-3-phosphorylcholine). After a 5 min incubation at 37° C., reaction products were extracted with n-butanol, separated by thin layer chromatography, and quantified by scintillation spectrometry.
as §2

[2] = biological target: T2, human synovial fluid PLA2 (Homo sapiens, UniProt P14555); assay: Human synovial fluid PLA2 assay ([14C]-oleate labelled E. coli); assay type: biochemical; conditions: 5 mM CaCl2, pH 7.0; > : inhibition but not enough for an IC50; >> : little or no inhibition at highest concentration; read-out: HSF PLA2 IC50
T2 construct: Purified human synovial fluid PLA2; from tissue; host or cells: human synovial fluid; obtained from R. C; Franson (Medical College of Virginia)
T2 sequence (P14555 21-144): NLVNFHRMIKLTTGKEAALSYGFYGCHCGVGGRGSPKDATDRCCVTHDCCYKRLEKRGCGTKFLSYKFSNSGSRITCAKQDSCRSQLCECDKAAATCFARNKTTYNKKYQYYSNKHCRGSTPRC
From the text: as §1
Purified human synovial fluid PLA2 (purified by the procedure of Fawzy, A. A. and Franson, R. C. Biophys. J. 49, 533a [1986]) was obtained from R. C. Franson (Medical College of Virginia, Richmond, Va.). PLA2 activity was measured by using [^14 C]-oleate labelled autoclaved E. coli as substrate as described by Franson, R. C., Patriarca, P., and Elsbach, P. J. Lipid Res. 15, 380-388 (1974). The assay was performed at 37° C. for 30 min in a final volume of 100 μL 50 mM Hepes buffer (pH 7.0) containing 150 mM NaCl, 5 mM CaCl2, and E. coli cells (corresponding to 10 nmol phospholipid). The test compound or control vehicle was preincubated with PLA2 for 5 min, followed by adding E. coli to initiate the reaction. The reaction was terminated by adding 2 mL tetrahydrofuran. The reaction product, [^14 C]-oleic acid, was isolated using a 1 mL Bond Elute--NH2 column and counted by liquid scintillation spectrometry.
as §2

HL-60 cells = assay: HL-60 cell assay for LTB4 and PGE2 production (calcium ionophore A23187 induced); assay type: cell-based; conditions: for IC50: Homo sapiens, HL-60, A23187 5×10^-6 M, > : inhibition but not enough for an IC50
Method: An additional whole cell assay was also performed. In this assay, HL-60 cells are induced with the calcium ionophore A23187 in the presence of varying amounts of inhibitor, and the amounts of the prostaglandin E2 (PGE2) and leukotriene B4 (LTB4) which form are measured. Calcium ionophore A23187 activates a calcium-dependent PLA2 which leads to the enhanced production of the arachidonic acid metabolites PGE2 and LTB4. The concentrations of inhibitor which decrease the production of PGE2 and LTB4 by 50% relative to controls are expressed as IC50 values.
HL-60 Cell Assay for LTB4 and PGE2 Production
HL-60 cells grown exponentially in culture were induced to differentiate into granulocytes by a four day incubation with 0.8% (v/v) N,N-dimethylformamide. Prior to assay, differentiated HL-60 cells were washed once with Hanks' balanced salt solution containing 0.35 mg/mL sodium bicarbonate and 10 mM Hepes, pH 7.3 (HBSS) and resuspended in HBSS at a 3×10^6 cells/mL concentration. DMSO or test compounds solubilized in DMSO were added at 1:100 dilution to 1.0 mL HL-60 cell suspensions (3×10^6 cells) and preincubated at 37° C. for 10 min in a shaking water bath. After an additional 5 min incubation with 5×10^-6 M calcium ionophore, A23187 (Calbiochem, La Jolla, Calif.), the cells were centrifuged at 12,800×g for 15 seconds and the supernatant (0.8 mL) removed and stored at -20° C. for LTB4 and PGE2 quantitation by radioimmunoassay (kits obtained from Amersham, United Kingdom and NEN Research Products, N. Billerica, Mass.).
as §2

rat neonatal myocytes = conditions: cited from earlier work
[3] = LTB4 production, read-out: HL-60 LTB4 IC50
[4] = PGE2 production, >> : little or no inhibition at highest concentration, read-out: HL-60 PGE2 IC50

IC50 (porcine pancreatic PLA2) [µM]	IC50 (sheep platelet PLA2) [µM]	IC50 [1] [µM]	IC50 [2] [µM]	IC50 (HL-60 cells; [3]) [µM]	IC50 (HL-60 cells; [4]) [µM]	Compound	potency against canine myocardial PLA2 (in words) [1]	other results
		1.7				O=C1O/C(=C/Br)CC1c1cccc2ccccc12 (centres unmarked) [Example 6, (E)-5-(Bromomethylene)tetrahydro-3-(1-naphthalenyl)-2(3H)-furanone]		
		22				C=C1CCC(c2cccc3ccccc23)C(=O)O1 (centres unmarked) [Example 7, Tetrahydro-6-methylene-3-(1-naphthalenyl)-2H-pyran-2-one]	loss of more than two orders of magnitude in potency	
		21				O=C1O/C(=C/Br)CCC1Oc1ccccc1 (centres unmarked) [Example 8, (E)-6-(Bromomethylene)tetrahydro-3-phenoxy-2H-pyran-2-one]		
		75				O=C1O/C(=C/Br)CCC1c1cccnc1 (centres unmarked) [Example 10, (E)-6-(Bromomethylene)tetrahydro-3-(3-pyridyl)-2H-pyran-2-one Hydrochloride]		

More lines, now with the values behind:

Compound	IC50 (porcine pancreatic PLA2) [µM]	IC50 (sheep platelet PLA2) [µM]	IC50 [1] [µM]	IC50 [2] [µM]	IC50 (HL-60 cells; [3]) [µM]	IC50 (HL-60 cells; [4]) [µM]	potency against canine myocardial PLA2 (in words) [1]	other results
O=C1O/C(=C/I)CCC1c1cccc2ccccc12 (centres unmarked) [Example 1, Tetrahydro-(E)-6-(iodomethylene)-3-(1-naphthalenyl)-2H-pyran-2-one]	> 100	100	0.031	> 100	11.7	> 100	most potent compound known against calcium-independent canine myocardial PLA2	selectivity for calcium-independent canine myocardial PLA2 over the calcium-dependent PLA2 enzymes [1]: over 3200 -fold; HL-60 PGE2 activation (+X%) (HL-60 cells; PGE2 production): +300%
C#C/C=C1\CCC(c2cccc3ccccc23)C(=O)O1 (centres unmarked) [Example 2, Tetrahydro-3-(1-Naphthalenyl)-(E)-6-(prop-2-ynylidene)-2H-pyran-2-one]	17	38		53	> 10	> 10		
O=C1O/C(=C/Br)CCC1c1cccc2ccccc12 (centres unmarked) [Example 3, (E)-6-(bromomethylene)tetrahydro-3-(1-naphthalenyl)-2H-pyran-2-one]	> 100	72	0.14	> 100	> 10	> 10	extremely potent inhibitors of canine myocardial PLA2	selectivity for calcium-independent canine myocardial PLA2 over the calcium-dependent PLA2 enzymes [1]: over 500 -fold; HL-60 PGE2 activation (+X%) (HL-60 cells; PGE2 production): +91%
O=C1O/C(=C\I)CCC1c1cccc2ccccc12 (centres unmarked) [Example 4, Tetrahydro-(Z)-6-(iodomethylene)-3-(1-naphthalenyl)-2H-pyran-2-one]			0.19				potency drops off by almost an order of magnitude	
O=C1O/C(=C/Br)CCC1c1ccccc1 (centres unmarked) [Example 5, (E)-6-(Bromomethylene)tetrahydro-3-phenyl-2H-pyran-2-one]	> 100	> 100	0.25	> 100	1.1	> 100		selectivity for calcium-independent canine myocardial PLA2 over the calcium-dependent PLA2 enzymes [1]: over 400 -fold; HL-60 PGE2 activation (+X%) (HL-60 cells; PGE2 production): +63%
O=C1CCC/C(=C\Br)O1 [Example 9, (E)-6-(Bromomethylene)tetrahydro-2H-pyran-2-one]								Canine Heart PLA2 inhibition at 100 μM ([1]; 100 μM, printed in the IC50 column with footnote 4): 28%
COC1=CCC2=C(CCC3C2CC[C@@]2(C)C3CC[C@@H]2N(C)CCCN(C)C)C1 (some centres unmarked) [U26,384]								release of arachidonic acid, phospholipid degradation, sarcolemmal membrane defects and release of creatine kinase (rat neonatal myocytes; induced by iodoacetate): prevented the release of arachidonic acid, phospholipid degradation, sarcolemmal membrane defects and the release of creatine kinase
O=C(O)CI [iodoacetate]								ATP levels, release of arachidonic acid and morphological alterations of myocytes (rat neonatal myocytes; rat neonatal myocytes): lowers the levels of ATP which results in the release of arachidonic acid and morphological alterations of the myocytes
